Tested on: ob/ob mice
Experiment: Effect on food intake (and total motor activity) by single dose subcutaneous administration in ob/ob mice, operant test cage system (Eater meter)
Format: in vivo, mouse
Details: male ob/ob mice
Text: Effect on Food Intake of N,N-Dimethyl 2-[1-(benzenesulphonyl)-5-methoxy-1H-indol-3-yl]ethylamine by single dose subcutaneous administration in ob/ob mice.
Obese (ob/ob) mouse is selected as the primary animal model for screening as this mutant mouse consumes high amounts of food resulting in a high signal to noise ratio. To further substantiate and compare efficacy data, the effect of the compounds on food consumption is also studied in wild type (C57BL/6J) mice. The amount of food consumed during 15 hours of infusion of compounds is recorded.
Male mice (obese C57BL/6JBom-Lep^ob and lean wild-type C57B1/6JBom; Bomholtsgaard, Denmark) 8-9 weeks with an average body weight of 50 g (obese) and 25 g (lean) are used in all the studies. The animals are housed singly in cages at 23±1° C., 40-60% humidity and have free access to water and standard laboratory chow. The 12/12-h light/dark cycle is set to lights off at 5 p.m. The animals are conditioned for at least one week before start of study.
The test compound, N,N-Dimethyl 2-[1-(benzenesulphonyl)-5-methoxy-1H-indol-3-yl]ethylamine, was dissolved in 25% Polyetylenglykol 400 (PEG 400) plus 0.1% Tween 80. +sodium actetate till pH 5. Doses of […] were used. […]
The animals were divided into four groups containing 8 animals each and treated with vehicle plus three dosages of the test compound. Food consumption, total motor activity and water consumption were measured continuously for 22 h following start of recording in a computer-assisted operant test cage system (Eater meter). […] On the fourth day the animals were treated with test compound just before dark onset (5 pm) and data recorded cumulatively for 3 h, 6 h, 12 h and 21 h. Water consumption during 22 h was also measured by weighing the days before and after treatment.
Animals were randomized according to body weight and treatment assigned in a cage- and room-wise order. […] Spillage at other time points were calculated proportionally to that of the 22 h spillage. The values are expressed as mean±SEM both as the change in gram from basal level and as percent of basal level. […]

Which results are given for `COc1ccc2c(c1)c(CCN(C)C)cn2S(=O)(=O)c1ccccc1` [N,N-Dimethyl 2-[1-(benzenesulphonyl)-5-methoxy-1H-indol-3-yl]ethylamine]?
decrease of food intake (single sc dose 10, 30, 50 mg salt/kg, at 6 h and 12 h following administration, significant, FIG. 1): 15-20%; dose dependence of food intake effect (single sc dose 10, 30, 50 mg salt/kg, all doses overlapped): not dose-dependent; approximate minimum effective dose for food intake (single sc dose, borderline statistical significance of 15-20% inhibition): ~10 mg/kg

Reference: US20030139424A1, “Use” (priority 2001, published 2003)
